According to patent US6358934B1, “Anti-retroviral activity of 2′,3′-dideoxy-3′-fluoronucleosides” (Medivir AB, priority 1986, dated 2002):

Key:
[1] = system: HIV (HTLV-III/LAV) in H9 cells; test: Expressed reverse transcriptase activity in HIV-infected H9 cell cultures; format: cell-based
Protocol: The cells were then pelleted and dispersed in 2.5 ml phosphate buffered saline (PBS) including 2 μg/ml Polybrene. After incubation for 30 min the cells were pelleted and infected with HIV. After an adsorption period of 1 hour the cells were pelleted and washed once with 2.5 ml PBS. […] Samples for reverse transcriptase activity tests were taken as indicated.
1.3 ml samples from the supernatant of each culture were centrifuged at 18 000 rpm in a 55-34 rotor for 1.5 hours and the virus pellet resuspended in 100 μl buffer containing 50 mM Tris-HCl, pH 7.5; 35 mM KCl; 4 mM DTT; 1 mM EDTA; 1.3% Triton X-100. 50 μl samples were taken to the reverse transcriptase activity tests and analyzed in a 100 μl reaction mixture containing 75 mM Tris-HCl, pH 8.0; 60 mM KCl; 6.2 mM MgCl2; 6 mM DTT; 0.5 mM EDTA; 0.65% Triton X-100, 100 μg/ml BSA; 25 μCi/ml ^3H-dTTP (spec activity 80 Ci/mmol); 2.5 μg/ml (dT)12-18; and 2.0 μg/ml (rA)n. Incubation was for 1 hour at 37° C. and the TCA-insoluble product precipitated onto Whatman GF/A filter papers, washed and dried, and counted in a liquid scintillation counter.
The amounts of reverse transcriptase molecules and their total activity expressed in HIV-infected cell cultures is correlated to the amount of HIV particles present. The addition of an effective antiviral agent which inhibits the production of new HIV particles, also decreases the amount of reverse transcriptase molecules and is expressed as a decreased total activity.

[2] = biological target: T1, reverse transcriptase of HIV (HTLV-III/LAV) (Human immunodeficiency virus type 1 group M subtype B, UniProt P03366); test: Cell-free assay of HIV reverse transcriptase; format: biochemical
T1 construct: reverse transcriptase from HIV (HTLV-III/LAV)
Protocol: A cell-free assay system has been used to investigate the inhibition of 3′-deoxy-3′-fluorothymidine on reverse transcriptase of HIV (HTLV-III/LAV). The assay was performed as described by Vrang et Öberg, Antimicrob. Agents Chemother. 29, 867-872 (1986). With this assay the 3′-deoxy-3′-fluoro-thymidine-5′-triphosphate has been tested, instead of the prodrug 3′-deoxy-3′-fluorothymidine to evaluate its potential against reverse transcriptase from HIV (HTLV-III/LAV).

[3] = biological target: DNA polymerase of hepatitis B virus (HBV) (Hepatitis B virus genotype D subtype ayw, UniProt P03156); test: biochemical; details: 3 hours incubation at 37° C., cpm vs water control
Source text: Since hepatitis B virus cannot be grown in cell cultures, a cell-free assay system of the hepatitis B virus DNA polymerase has been used to investigate the effect of 3′-deoxy-3′-fluorothymidine. 3′-Deoxy-3′-fluorothymidine in cells is transformed to 3′-deoxy-3′-fluorothymidine-5′-triphosphate.
The HBV associated DNA polymerase activity can be measured in vitro (Kaplan et al., J. Virol., 12, 995-1005, 1973). A slight modification of this method has been used to test the substance for inhibition of this DNA polymerase activity. (Nordenfelt E., Öberg, B., Helgstrand E. and Miller E. Acta path., Microbiol. Scand. Sect B, 88:169-175, 1980). With this assay the 3′-deoxy-3′-fluorothymidine-5′-triphosphate has been tested, instead of the prodrug 3′-deoxy-3′-fluorothymidine, to evaluate its potential against hepatitis B virus DNA polymerase.
3′-deoxy-3′-fluorothymidine-5′-triphosphate was added to the final concentrations of 0.01 μM, 0.05 μM, 0.1 μM, 0.5 μM and 1.0 μM in the reaction mixture. The inhibition is calculated after 3 hours incubation at 37° C. and based on cpm compared to control with added water.

Sequence of DNA polymerase of hepatitis B virus (HBV) (P03156 whole entry): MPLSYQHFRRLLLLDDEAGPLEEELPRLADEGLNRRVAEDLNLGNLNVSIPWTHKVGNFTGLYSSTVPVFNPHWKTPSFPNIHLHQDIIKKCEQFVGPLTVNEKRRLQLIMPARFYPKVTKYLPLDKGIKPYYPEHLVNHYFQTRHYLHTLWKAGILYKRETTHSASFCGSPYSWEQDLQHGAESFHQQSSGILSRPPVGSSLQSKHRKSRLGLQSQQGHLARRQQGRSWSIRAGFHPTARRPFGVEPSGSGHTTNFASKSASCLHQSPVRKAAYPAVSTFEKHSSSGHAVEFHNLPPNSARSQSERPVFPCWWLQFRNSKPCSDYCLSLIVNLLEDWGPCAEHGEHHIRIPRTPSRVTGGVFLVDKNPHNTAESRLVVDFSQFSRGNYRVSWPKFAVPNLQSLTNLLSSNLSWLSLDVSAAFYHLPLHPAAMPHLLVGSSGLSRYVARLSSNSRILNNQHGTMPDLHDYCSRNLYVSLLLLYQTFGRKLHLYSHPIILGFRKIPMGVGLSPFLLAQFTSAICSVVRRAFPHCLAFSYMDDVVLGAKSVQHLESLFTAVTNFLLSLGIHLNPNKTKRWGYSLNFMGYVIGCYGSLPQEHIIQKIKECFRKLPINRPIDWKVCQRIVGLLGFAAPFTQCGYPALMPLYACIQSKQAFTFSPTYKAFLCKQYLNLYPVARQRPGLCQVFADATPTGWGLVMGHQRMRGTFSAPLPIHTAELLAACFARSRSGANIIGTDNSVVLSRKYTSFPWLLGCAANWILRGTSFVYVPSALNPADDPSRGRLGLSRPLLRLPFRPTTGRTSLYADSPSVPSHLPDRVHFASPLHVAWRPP

Cc1cn([C@H]2C[C@H](F)[C@@H](CO)O2)c(=O)[nH]c1=O [3′-deoxy-3′-fluorothymidine]
Reverse transcriptase activity ([1]; 0.01 μM, 4 days post-infection, 0 μM control 0.9): 0.5 cpm × 10^−3
Reverse transcriptase activity ([1]; 0.01 μM, 8 days post-infection, 0 μM control 19): 1.3 cpm × 10^−3
Reverse transcriptase activity ([1]; 0.01 μM, 11 days post-infection, 0 μM control 17): 1.9 cpm × 10^−3
Reverse transcriptase activity ([1]; 0.01 μM, 15 days post-infection, 0 μM control 11): 2.7 cpm × 10^−3
Reverse transcriptase activity ([1]; 0.01 μM, 18 days post-infection, 0 μM control 27): 28 cpm × 10^−3
Reverse transcriptase activity ([1]; 0.01 μM, 22 days post-infection, 0 μM control 46): 52 cpm × 10^−3
Reverse transcriptase activity ([1]; 0.01 μM, 29 days post-infection, 0 μM control 16): 21 cpm × 10^−3
effect on reverse transcriptase activity of HIV in infected H9 cells (in words) ([1]; 0.01 μM, up to 11 days): enzyme activity was not detected
Reverse transcriptase activity ([1]; 0.05 μM, 4 days post-infection, 0 μM control 0.9): 0.3 cpm × 10^−3
Reverse transcriptase activity ([1]; 0.05 μM, 8 days post-infection, 0 μM control 19): 0.3 cpm × 10^−3
Reverse transcriptase activity ([1]; 0.05 μM, 11 days post-infection, 0 μM control 17): 0.4 cpm × 10^−3
Reverse transcriptase activity ([1]; 0.05 μM, 15 days post-infection, 0 μM control 11): 0.6 cpm × 10^−3
Reverse transcriptase activity ([1]; 0.05 μM, 18 days post-infection, 0 μM control 27): 0.5 cpm × 10^−3
Reverse transcriptase activity ([1]; 0.05 μM, 22 days post-infection, 0 μM control 46): 1.6 cpm × 10^−3
Reverse transcriptase activity ([1]; 0.05 μM, 29 days post-infection, 0 μM control 16): 3.1 cpm × 10^−3
effect on reverse transcriptase activity of HIV in infected H9 cells (in words) ([1]; 0.05 μM, up to 22 days): no significant enzyme activity was detected
effect on reverse transcriptase activity of HIV in infected H9 cells (in words) ([1]; 0.1 μM and higher concentrations, during at least 29 days): completely prevents the enzyme activity
Reverse transcriptase activity ([1]; 0.1 μM, 4 days post-infection, 0 μM control 0.9): 0.2 cpm × 10^−3
Reverse transcriptase activity ([1]; 0.1 μM, 8 days post-infection, 0 μM control 19): 0.2 cpm × 10^−3
Reverse transcriptase activity ([1]; 0.1 μM, 11 days post-infection, 0 μM control 17): 0.5 cpm × 10^−3
Reverse transcriptase activity ([1]; 0.1 μM, 15 days post-infection, 0 μM control 11): 0.4 cpm × 10^−3
Reverse transcriptase activity ([1]; 0.1 μM, 18 days post-infection, 0 μM control 27): 0.4 cpm × 10^−3
Reverse transcriptase activity ([1]; 0.1 μM, 22 days post-infection, 0 μM control 46): 0.2 cpm × 10^−3
Reverse transcriptase activity ([1]; 0.1 μM, 29 days post-infection, 0 μM control 16): 0.2 cpm × 10^−3
Reverse transcriptase activity ([1]; 0.5 μM, 4 days post-infection, 0 μM control 0.9): 0.3 cpm × 10^−3
Reverse transcriptase activity ([1]; 0.5 μM, 8 days post-infection, 0 μM control 19): 0.3 cpm × 10^−3
Reverse transcriptase activity ([1]; 0.5 μM, 11 days post-infection, 0 μM control 17): 0.5 cpm × 10^−3
Reverse transcriptase activity ([1]; 0.5 μM, 15 days post-infection, 0 μM control 11): 0.3 cpm × 10^−3
Reverse transcriptase activity ([1]; 0.5 μM, 18 days post-infection, 0 μM control 27): 0.6 cpm × 10^−3
Reverse transcriptase activity ([1]; 0.5 μM, 22 days post-infection, 0 μM control 46): 0.1 cpm × 10^−3
Reverse transcriptase activity ([1]; 0.5 μM, 29 days post-infection, 0 μM control 16): 0.2 cpm × 10^−3
Reverse transcriptase activity ([1]; 1.0 μM, 4 days post-infection, 0 μM control 0.9): 0.3 cpm × 10^−3
Reverse transcriptase activity ([1]; 1.0 μM, 8 days post-infection, 0 μM control 19): 0.2 cpm × 10^−3
Reverse transcriptase activity ([1]; 1.0 μM, 11 days post-infection, 0 μM control 17): 0.5 cpm × 10^−3
Reverse transcriptase activity ([1]; 1.0 μM, 15 days post-infection, 0 μM control 11): 0.4 cpm × 10^−3
Reverse transcriptase activity ([1]; 1.0 μM, 18 days post-infection, 0 μM control 27): 0.5 cpm × 10^−3
Reverse transcriptase activity ([1]; 1.0 μM, 22 days post-infection, 0 μM control 46): 0.1 cpm × 10^−3
Reverse transcriptase activity ([1]; 1.0 μM, 29 days post-infection, 0 μM control 16): 0.2 cpm × 10^−3

Cc1cn([C@H]2C[C@H](F)[C@@H](COP(=O)(O)OP(=O)(O)OP(=O)(O)O)O2)c(=O)[nH]c1=O [3′-deoxy-3′-fluorothymidine-5′-triphosphate]
% inhibition of HIV (HTLV-III/LAV) reverse transcriptase ([2]; 0.01 μM): 12%
% inhibition of HIV (HTLV-III/LAV) reverse transcriptase ([2]; 0.05 μM): 27%
% inhibition of HIV (HTLV-III/LAV) reverse transcriptase ([2]; 0.1 μM): 38%
inhibition at 0.01 µM ([3]; 0.01 μM): 17%
inhibition at 0.05 µM ([3]; 0.05 μM): 17%
inhibition at 0.1 µM ([3]; 0.1 μM): 39%
inhibition at 0.5 µM ([3]; 0.5 μM): 79%
